The conditions of data set [1]: rat, in vivo; cited from earlier work.
Another data set concerns C2C12 murine myoblasts. It counts as cell-based.
Another data set deals with glucocorticoid receptors. The note with it: cultured cells; cited from earlier work.

The text below walks through data of US20170340648A1, “Pharmaceutical Compositions Affecting Bioenergetic Processes in a Eukaryotic Biological System and Methods of Treatment” (JOYCE BIOTECH CORP., priority 2016, published 2017).

Molecules are shown by their SMILES. Entries after “also recorded” stand apart in the source; their conditions may differ.

Procedure for C2C12 murine myoblasts: In the experiment, immortalized murine C2C12 myoblast cells were exposed to various pre-assay growth conditions prior to being seeded into a Seahorse XF24 Extracellular Flux Analyzer cell culture plate. The basal oxygen consumption (OCR) and extracellular acidification (ECAR) rates were measured to establish baseline metabolic rates for each experimental culture condition. The cells were then metabolically perturbed by the successive addition of three different compounds that shift the bioenergetic profile of the cell.
The first compound added following the collection of baseline metabolic data was oligomycin.
The second agent injected, carbonyl cyanide-p-trifluoromethoxyphenylhydrazone (FCCP), is an ionophore that is a mobile ion carrier.
Rotenone, a Complex I inhibitor, is the third agent injected in sequence, it prevents the transfer of electrons from the Fe—S center in Complex I to ubiquinone (Coenzyme Q).
Rotenone exposure inhibits mitochondrial respiration and enables both the mitochondrial and non-mitochondrial fractions contributing to respiration to be calculated.
Statistical analysis was conducted via two-tailed Mann-Whitney U test of variance. U and P values were calculated using algorithms supplied by the Meta Numerics and ALGLIB statistical libraries. During calculations, when the value of N (the number of scores) was equal to or greater than 10, it was assumed that the sampling distribution was approximately normal, and a Z-ratio was also employed to calculate the value of P. The threshold for significance was set at P≦to 0.05 (Table 27A1 to Table 27F2).
C2C12 murine myoblast cells were placed into pre-assay growth condition categories and cultured for 24 hours.
CSC12 murine myoblast cells were seeded into a Seahorse XF24 24 well culture plate at a density of 10,000 cells/well in 100 microliters of Growth Medium.
The seeded XF24 culture plates were placed into a 37 degree Centigrade incubator at 10% CO2 for 24 hours. […]

For `O=CC[C@@H](O)[C@H](O)[C@H](O)CO` [2-Deoxy-d-Glucose], in data set [1], the cardiac toxicity result is reported as “cardiotoxicity”.
In the case of `C=C(C)[C@H]1Cc2c(ccc3c2O[C@@H]2COc4cc(OC)c(OC)cc4[C@@H]2C3=O)O1` [Rotenone], the “oxygen consumption rate (OCR) relative to Control condition” value with C2C12 murine myoblasts (24 h pre-assay incubation for compositions, Rotenone 2.0 μM injected, basal and FCCP conditions) is on record as “significantly reduced; also recorded: decreased”. Also, in the data set on C2C12 murine myoblasts (basal, Met/Mife 25 uM/50 uM (Table 27A1), MET/KET 1 mM/50 uM (Table 27F3), Rotenone 2.0 μM), the “anaerobic metabolic activity as indicated by extracellular acidification rate (ECAR) relative to untreated control” value is “increased”.
Consider `CC(=O)N1CCN(c2ccc(OCC3COC(Cn4ccnc4)(c4ccc(Cl)cc4Cl)O3)cc2)CC1` (stereo not shown) [ketoconazole], for which the glucocorticoid receptor activity result in the data set with glucocorticoid receptors is “antagonist”.
